# Results from ChEMBL document CHEMBL6083252, “Synthesis and evaluation of novel tetrahydroisoquinoline-benzo[h]chromen-4-one conjugates as dual ABCB1/CYP1B1 inhibitors for overcoming MDR in cancer” (Bioorg Med Chem, 2024).
# Active and inactive are the calls of the source. The rule behind the calls is not given here.
# Experiments:
# SW620/AD300 [1] = assay: Cytotoxicity against human SW620/AD300 cells assessed as inhibition of cell growth at 5 uM incubated for 48 hrs by CCK8 assay; type: functional; set-up: scale not given: the % may be the effect or the level left
# [2] = Reversal of docetaxel resistance in human DU-145 cells transfected with CYP1B1 assessed as decrease in docetaxel IC50 at 5 uM (reference value: 23.5 +/- 3.04 nM); type: functional, cell-based
# SW-620 = assay: Cytotoxicity against human SW620 cells assessed as inhibition of cell growth at 5 uM incubated for 48 hrs by CCK8 assay; type: functional; set-up: scale not given: the % may be the effect or the level left
# DU-145 = assay: Cytotoxicity against human DU-145 cells assessed as inhibition of cell growth at 5 uM incubated for 48 hrs by CCK8 assay; type: functional, cell-based
# SW620/AD300 [3] = assay: Reversal of multidrug resistance in human SW620/AD300 cells assessed as reversal fold by measuring ratio of doxorubicin IC50 to doxorubicin IC50 in presence of test compound at 5 uM; type: functional
# SW620/AD300 [4] = assay: Reversal of multidrug resistance in human SW620/AD300 cells assessed as decrease in doxorubicin IC50 at 5 uM in presence of doxorubicin (reference value: 11.10 +/- 1.61 uM); type: functional, cell-based
# [5] = Induction of apoptosis in human MKN45-DDP-R cells assessed as late apoptotic cells at 3 uM incubated for 48 hrs by Annexin V-FITC/PI staining based flow cytometry analysis (reference value: 0.89%); type: functional, MKN45-DDP-R (Cisplatin-resistant MKN45 cells)
# [6] = Induction of apoptosis in human MKN45-DDP-R cells assessed as necrotic cells at 6 uM incubated for 48 hrs by Annexin V-FITC/PI staining based flow cytometry analysis (reference value: 0.76%); type: functional, MKN45-DDP-R (Cisplatin-resistant MKN45 cells)
# [7] = system: MKN45-DDP-R (Cisplatin-resistant MKN45 cells); assay: Inhibition of colony formation in human MKN45-DDP-R cells assessed as decrease in colony size incubated for 48 hrs followed by media replacement and cultured for 12 days by crystal violet staining based assay; type: functional, cell-based; conditions: dose 1-3 µM
# [8] = system: MKN45-DDP-R (Cisplatin-resistant MKN45 cells); assay: Upregulation of PUMA expression level in human MKN45-DDP-R cells at 6 to 12 uM incubated for 48 hrs by Western blotting assay; type: functional, cell-based; conditions: dose 6-12 µM
# SW620/AD300 [9] = assay: Effect on P-gp protein expression in human SW620/AD300 cells at 5 uM incubated for 24 hrs by immunofluorescence assay; type: functional, cell-based
# [10] = system: MKN45-DDP-R (Cisplatin-resistant MKN45 cells); assay: Inhibition of colony formation in human MKN45-DDP-R cells assessed as decrease in colony number incubated for 48 hrs followed by media replacement and cultured for 12 days by crystal violet staining based assay; type: functional, cell-based; conditions: dose 1-3 µM
# [11] = Induction of apoptosis in human MKN45-DDP-R cells assessed as viable cells at 3 uM incubated for 48 hrs by Annexin V-FITC/PI staining based flow cytometry analysis (reference value: 94.7%); type: functional; conditions: MKN45-DDP-R (Cisplatin-resistant MKN45 cells), read-out: Activity
# [12] = Induction of apoptosis in human MKN45-DDP-R cells assessed as late apoptotic cells at 6 uM incubated for 48 hrs by Annexin V-FITC/PI staining based flow cytometry analysis (reference value: 0.89%); type: functional, MKN45-DDP-R (Cisplatin-resistant MKN45 cells)
# [13] = Cytotoxicity against human MKN45-DDP-R cells assessed as inhibition of cell growth incubated for 48 hrs by CCK8 assay; type: functional, cell-based; conditions: MKN45-DDP-R (Cisplatin-resistant MKN45 cells)
# [14] = system: MKN45-DDP-R (Cisplatin-resistant MKN45 cells); assay: Inhibition of cell migration in human MKN45-DDP-R cells at over 1 uM incubated for 24 hrs by scratch wound healing based inverted microscopic analysis; type: functional
# SW620/AD300 [15] = assay: Cytotoxicity against human SW620/AD300 cells assessed as inhibition of cell growth incubated for 48 hrs by CCK8 assay; type: functional, cell-based; conditions: SW620/AD300, 48 h
# [16] = system: MKN45-DDP-R (Cisplatin-resistant MKN45 cells); assay: Effect on lipid peroxidation level in human MKN45-DDP-R cells at 10 uM incubated for 24 hrs by BODIPY 581/591 C11 probe based flow cytometry assay; type: functional, cell-based
# [17] = Induction of apoptosis in human MKN45-DDP-R cells assessed as early apoptotic cells at 3 uM incubated for 48 hrs by Annexin V-FITC/PI staining based flow cytometry analysis (reference value: 3.70%); type: functional, MKN45-DDP-R (Cisplatin-resistant MKN45 cells)
# [18] = Induction of apoptosis in human MKN45-DDP-R cells assessed as viable cells at 6 uM incubated for 48 hrs by Annexin V-FITC/PI staining based flow cytometry analysis (reference value: 94.7%); type: functional; conditions: MKN45-DDP-R (Cisplatin-resistant MKN45 cells), read-out: Activity
# [19] = Induction of apoptosis in human MKN45-DDP-R cells assessed as early apoptotic cells at 6 uM incubated for 48 hrs by Annexin V-FITC/PI staining based flow cytometry analysis (reference value: 3.70%); type: functional, MKN45-DDP-R (Cisplatin-resistant MKN45 cells)
# [20] = Induction of apoptosis in human MKN45-DDP-R cells assessed as necrotic cells at 3 uM incubated for 48 hrs by Annexin V-FITC/PI staining based flow cytometry analysis (reference value: 0.76%); type: functional, MKN45-DDP-R (Cisplatin-resistant MKN45 cells)
# SW620/AD300 [21] = assay: Effect on P-gp protein expression in human SW620/AD300 cells at 5 to 30 uM by Western blotting assay; type: functional, cell-based; conditions: dose 5-30 µM
# [22] = Cytotoxicity against human DOX-SW620/AD300-1B1 cells assessed as inhibition of cell growth incubated for 48 hrs by CCK8 assay; type: functional, cell-based; conditions: DOX-SW620/AD300-1B1, 48 h
# SW620/AD300 [23] = assay: Downregulation of P-gp expression in human SW620/AD300 cells upto 30 uM incubated for 24 hrs by Western blotting assay; type: functional, cell-based
# SW620/AD300 [24] = assay: Downregulation of P-gp expression in human SW620/AD300 cells at 10 uM incubated for 24 hrs by immunofluorescence assay; type: functional, cell-based
# [25] = system: MKN45-DDP-R (Cisplatin-resistant MKN45 cells); assay: Reversal of cisplatin resistance in human MKN45-DDP-R cells expressing CYP1B1 at 5 uM in presence of cisplatin; type: functional, cell-based
# [26] = Reversal of drug resistance in human DOX-SW620/AD300-1B1 cells assessed as decrease in doxorubicin IC50 at 5 uM after 48 hrs in presence of doxorubicin by CCK8 assay (reference value: 64.5 +/- 30 uM); type: functional, cell-based; conditions: DOX-SW620/AD300-1B1, 48 h
# Cytochrome P450 1B1 = biological target: T1, Cytochrome P450 1B1 (Homo sapiens, UniProt Q16678); assay: Inhibition of recombinant human CYP1B1 at 0.5 uM using 7-Ethoxyresorufin as substrate incubated for 35 mins in presence of NADPH by microplate reader assay; type: ADME; conditions: recombinant enzyme
# T1 sequence (Q16678 whole entry): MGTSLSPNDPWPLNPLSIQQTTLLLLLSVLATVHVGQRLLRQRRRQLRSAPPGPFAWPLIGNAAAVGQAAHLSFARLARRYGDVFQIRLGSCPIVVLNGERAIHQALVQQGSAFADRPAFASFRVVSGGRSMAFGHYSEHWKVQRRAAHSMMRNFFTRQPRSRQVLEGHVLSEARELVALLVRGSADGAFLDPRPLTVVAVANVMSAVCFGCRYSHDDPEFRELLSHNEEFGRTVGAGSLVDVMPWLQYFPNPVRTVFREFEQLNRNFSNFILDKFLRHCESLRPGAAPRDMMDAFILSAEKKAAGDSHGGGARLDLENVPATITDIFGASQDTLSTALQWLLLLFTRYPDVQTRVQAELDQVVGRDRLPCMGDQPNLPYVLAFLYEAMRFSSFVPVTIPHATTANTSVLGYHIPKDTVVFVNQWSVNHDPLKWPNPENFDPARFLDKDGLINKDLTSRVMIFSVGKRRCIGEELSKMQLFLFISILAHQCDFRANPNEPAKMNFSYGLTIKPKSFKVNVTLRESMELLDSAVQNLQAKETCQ
# [27] = biological target: ATP-dependent translocase ABCB1 (Homo sapiens, UniProt P08183); assay: Inhibition of P-gp in human SW620/AD300 cells assessed as increase in intracellular Rh123 accumulation at 5 uM incubated for 4 hrs by flow cytometry analysis; type: cell-based; conditions: sw620/ad300, 4 h
# Chain of ATP-dependent translocase ABCB1 (P08183 whole entry): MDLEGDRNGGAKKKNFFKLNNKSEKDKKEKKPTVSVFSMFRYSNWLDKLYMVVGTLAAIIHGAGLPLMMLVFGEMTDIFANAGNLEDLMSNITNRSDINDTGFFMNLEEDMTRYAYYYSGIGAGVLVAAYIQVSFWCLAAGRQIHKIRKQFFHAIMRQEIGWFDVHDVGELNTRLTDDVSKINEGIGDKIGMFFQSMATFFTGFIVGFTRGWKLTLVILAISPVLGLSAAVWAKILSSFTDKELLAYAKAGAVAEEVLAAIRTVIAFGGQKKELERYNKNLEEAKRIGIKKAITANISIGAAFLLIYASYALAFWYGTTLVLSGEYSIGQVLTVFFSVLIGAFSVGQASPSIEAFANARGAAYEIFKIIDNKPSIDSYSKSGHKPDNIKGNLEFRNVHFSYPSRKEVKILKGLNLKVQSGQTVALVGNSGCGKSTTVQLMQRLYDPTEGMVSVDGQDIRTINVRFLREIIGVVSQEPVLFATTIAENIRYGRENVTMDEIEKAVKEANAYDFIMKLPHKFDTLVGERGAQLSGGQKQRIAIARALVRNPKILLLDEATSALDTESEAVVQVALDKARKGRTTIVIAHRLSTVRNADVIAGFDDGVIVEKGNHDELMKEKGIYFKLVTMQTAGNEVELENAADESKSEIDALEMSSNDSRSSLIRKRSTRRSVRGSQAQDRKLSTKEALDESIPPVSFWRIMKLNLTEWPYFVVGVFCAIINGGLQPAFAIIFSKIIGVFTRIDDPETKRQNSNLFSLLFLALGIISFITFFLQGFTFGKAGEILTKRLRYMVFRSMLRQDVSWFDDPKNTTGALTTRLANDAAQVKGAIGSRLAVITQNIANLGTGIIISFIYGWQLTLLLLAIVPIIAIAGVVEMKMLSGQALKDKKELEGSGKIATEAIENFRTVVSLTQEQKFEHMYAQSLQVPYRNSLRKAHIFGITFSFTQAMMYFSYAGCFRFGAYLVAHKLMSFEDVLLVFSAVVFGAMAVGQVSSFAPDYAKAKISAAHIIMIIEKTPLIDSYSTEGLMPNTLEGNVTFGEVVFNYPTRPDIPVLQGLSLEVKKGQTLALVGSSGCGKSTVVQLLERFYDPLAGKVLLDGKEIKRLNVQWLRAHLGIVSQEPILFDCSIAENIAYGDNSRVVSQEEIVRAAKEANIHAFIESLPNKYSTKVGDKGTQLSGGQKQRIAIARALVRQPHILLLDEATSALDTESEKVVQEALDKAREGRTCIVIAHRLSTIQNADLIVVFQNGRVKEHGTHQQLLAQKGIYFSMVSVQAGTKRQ
IC50 [2] [nM],IC50 (SW620/AD300 [4]) [nM],SMILES,Activity (SW620/AD300 [1]) [%],Activity (SW-620) [%],Activity (DU-145),Ratio IC50 (SW620/AD300 [3]),other results
11.4,7480,COc1cc2c(cc1OC)CN(C(=O)c1cc(=O)c3cc(OC)c4ccccc4c3o1)CC2,3.49,4.62,Active; Lower Cytotoxicity Than Anf And Wk-X-35,1.4,
,5250,COc1cc2c(cc1OC)CN(CCNC(=O)c1cc(=O)c3ccc4ccccc4c3o1)CC2,55.04,51.29,,2.1,Activity [5]: 3.37%; Activity [6]: 0.73%; inhibition [7]: Dose-dependent-effect; Activity [8]: Active; Activity (SW620/AD300 [9]): inactive; inhibition [10]: Dose-dependent-effect; viability at 3 µM [11]: 81.1%; Activity [12]: 6.41%; IC50 [13]: 6580 nM; inhibition [14]: Active; IC50 (SW620/AD300 [15]): 9100 nM; Activity [16]: inactive; Activity [17]: 15%; viability at 6 µM [18]: 58%; Activity [19]: 34.9%; Activity [20]: 0.58%; Activity (SW620/AD300 [21]): inactive
,,COc1cccc2c1C(=O)c1c(O)c3c(c(O)c1C2=O)C[C@@](O)(C(=O)CO)C[C@@H]3O[C@H]1C[C@H](N)[C@H](O)[C@H](C)O1 [DOXORUBICIN],,0.29,,,IC50 [22]: 64500 nM; IC50 (SW620/AD300 [15]): 11100 nM
9.6,320,COc1cc2c(cc1OC)CN(CCc1ccc(NC(=O)c3ccccc3NC(=O)c3cc(=O)c4ccc5ccccc5c4o3)cc1)CC2,7.13,13.34,Active; Lower Cytotoxicity Than Anf And Wk-X-34,34.7,Activity (SW620/AD300 [23]): inactive; Activity (SW620/AD300 [24]): inactive
5.69,250,COc1cc2c(cc1OC)CN(CCc1ccc(NC(=O)c3cc(=O)c4cc(OC)c5ccccc5c4o3)cc1)CC2,17.28,32.77,Active; Lower Cytotoxicity Than Anf And Wk-X-36,44.4,Activity (SW620/AD300 [23]): inactive; Activity [25]: Active; IC50 [26]: 4700 nM; Activity (SW620/AD300 [24]): inactive
,6500,COc1cc2c(cc1OC)CN(C(=O)c1cc(=O)c3ccc4ccccc4c3o1)CC2,15.57,8.82,,1.7,
8.7,280,COc1ccc(C(=O)Nc2ccccc2C(=O)Nc2ccc(CCN3CCc4cc(OC)c(OC)cc4C3)cc2)cc1OC,6.53,8.91,Active; Lower Cytotoxicity Than Anf And Wk-X-38,39.6,inhibition (INH) (Cytochrome P450 1B1): Active; IC50 [26]: 40000 nM; inhibition (INH) [27]: Active
,660,COc1cc2c(cc1OC)CN(CCN1CCN(C(=O)c3cc(=O)c4ccc5ccccc5c4o3)CC1)CC2,15.35,11.06,,16.8,
,470,COc1cc2c(cc1OC)CN(CCNC(=O)c1cc(=O)c3cc(OC)c4ccccc4c3o1)CC2,34.64,28.94,,23.6,
3.41,2290,COc1cc2c(cc1OC)CN(C(=O)Cn1cc(-c3ccc(-c4cc(=O)c5ccc6ccccc6c5o4)cc3)nn1)CC2,26.85,22.19,Active; Lower Cytotoxicity Than Anf And Wk-X-37,4.8,Activity [25]: Active
,840,COc1cc2c(cc1OC)CN(C(=O)C1CCN(C(=O)c3cc(=O)c4ccc5ccccc5c4o3)CC1)CC2,14.46,26.93,,13.2,
,2200,COc1cc2c(cc1OC)CN(C(=O)C1CCN(C(=O)c3cc(=O)c4cc(OC)c5ccccc5c4o3)CC1)CC2,4.05,13.03,,5,
8.2,,O=c1cc(-c2ccccc2)oc2c1ccc1ccccc12 [ALPHA-NAPHTHOFLAVONE],,,Active; Lower Cytotoxicity Than Anf And Wk-X-39,,inhibition (INH) (Cytochrome P450 1B1): Active; IC50 [26]: 2400 nM
,400,COc1cc2c(cc1OC)CN(CCc1ccc(NC(=O)c3cc(=O)c4ccc5ccccc5c4o3)cc1)CC2,20.08,13.57,,27.8,
